One data set deals with OVCAR-8. As to the kind of experiment: NCI screening panel, OVCAR-8 (Ovarian Cancer). The format is cell-based, human. As to the method:
(§1) Representative compounds of Formula I were screened using the National Cancer Institute (NCI) screening panel, which consists of a panel of human tumor cell lines, representing leukemia, melanoma, and cancers of the lung, colon, ovary, breast, prostate and renal system.
(§2) After 24 h, two plates of each cell line are fixed in situ with TCA, to represent a measurement of the cell population for each cell line at the time of drug addition (Tz). Experimental drugs are solubilised in dimethyl sulfoxide at 400-fold the desired final maximum test concentration and stored frozen prior to use. At the time of drug addition, an aliquot of frozen concentrate is thawed and diluted to twice the desired final maximum test concentration with complete medium containing 50 μg/mL gentamicin. Additional four, 10-fold or ½ log serial dilutions are made to provide a total of five drug concentrations plus control. Aliquots of 100 μl of these different drug dilutions are added to the appropriate microtiter wells already containing 100 μl of medium, resulting in the required final drug concentrations.
(§3) Following drug addition, the plates are incubated for an additional 48 h at 37° C., 5% CO2, 95% air, and 100% relative humidity. For adherent cells, the assay is terminated by the addition of cold TCA (trichloroacetic acid). Cells are fixed in situ by the gentle addition of 50 μl of cold 50% (w/v) TCA (final concentration, 10% TCA) and incubated for 60 minutes at 4° C. The supernatant is discarded, and the plates are washed five times with tap water and air dried. Sulforhodamine B (SRB) solution (100 μl) at 0.4% (w/v) in 1% acetic acid is added to each well, and plates are incubated for 10 minutes at room temperature. After staining, unbound dye is removed by washing five times with 1% acetic acid and the plates are air dried. Bound stain is subsequently solubilised with 10 mM trizma base, and the absorbance is read on an automated plate reader at a wavelength of 515 nm. For suspension cells, the methodology is the same except that the assay is terminated by fixing settled cells at the bottom of the wells by gently adding 50 μl of 80% TCA (final concentration, 16% TCA). Using the seven absorbance measurements [time zero, (Tz), control growth, (C), and test growth in the presence of drug at the five concentration levels (Ti)], the percentage growth is calculated at each of the drug concentrations levels. Percentage growth inhibition is calculated as: [(Ti−Tz)/(C−Tz)]×100 for concentrations for which Ti>/=Tz and [(Ti−Tz)/Tz]×100 for concentrations for which Ti<Tz.
(§4) Three dose response parameters are calculated for each experimental agent. Growth inhibition of 50% (GI50) is calculated from [(Ti−Tz)/(C−Tz)]×100=50, which is the drug concentration resulting in a 50% reduction in the net protein increase (as measured by SRB staining) in control cells during the drug incubation. The drug concentration resulting in total growth inhibition (TGI) is calculated from Ti=Tz. The LC50 (concentration of drug resulting in a 50% reduction in the measured protein at the end of the drug treatment as compared to that at the beginning) indicating a net loss of cells following treatment is calculated from [(Ti−Tz)/Tz]×100=−50. Values are calculated for each of these three parameters if the level of activity is reached. However, if the effect is not reached or is exceeded, the value for that parameter is expressed as greater or less than the maximum or minimum concentration tested.

The next data set concerns MM.1S tumor cells. Put plainly: Inhibition of tumor growth in myeloma MM.1S mouse xenograft model. The format is in vivo. As to conditions: MM.1S xenograft mice. As to the method: The mice were irradiated (200 rads) using a Co60 irradiator source. After 24 hrs, each mouse was inoculated subcutaneously with 5×10^6 MM.1S tumor cells in 0.1 mL PBS for tumor development. Treatments were started when the tumor volume reached 100 mm^3. Each treatment group consisted of 10 mice. The test articles of compounds of Formula I were administrated to the tumor-bearing mice according to a specific predetermined regimen.

Another data set deals with HOP-92. Put plainly: NCI screening panel, HOP-92 (Non-Small Cell Lung Cancer). It counts as cell-based, human. As to the method: as §1, §2, §3, §4
For a further data set, the system named is NCI/ADR-RES. As to the kind of experiment: NCI screening panel, NCI/ADR-RES (Ovarian Cancer). The format is cell-based, human. As to the method:
as §1, §2, §3, §4

A further data set has as its system RXF 393. Put plainly: NCI screening panel, RXF 393 (Renal Cancer). The format is cell-based, human. As to the method: as §1, §2, §3, §4
A further data set concerns M14. Put plainly: NCI screening panel, M14 (Melanoma). The format is cell-based, human. The procedure:
as §1, §2, §3, §4

On to `CC(C)C[C@H](NC(=O)[C@H](COC(F)F)NC(=O)CN1CCOCC1)C(=O)N[C@@H](COC(F)F)C(=O)N[C@@H](CC(C)C)C(=O)[C@@]1(C)CO1` [Example 1, (2S)—N-[(1S)-1-(difluoromethoxymethyl)-2-[[(1S)-3-methyl-1-[(2R)-2-methyloxirane-2-carbonyl]butyl]amino]-2-oxo-ethyl]-2-[[(2S)-3-(difluoromethoxy)-2-[(2-morpholinoacetyl)amino]propanoyl]amino]-4-methyl-pentanamide], for which the Log10GI50 is reported as −6.85 in the data set on OVCAR-8; −7.74 in the data set on HOP-92; −5.10 in the data set with NCI/ADR-RES; −6.96 in the data set with RXF 393; −7.25 in the data set with M14. For the same compound, the Log10LC50 is listed as >−4.00 with OVCAR-8; −6.50 with HOP-92; >−4.00 in the data set with NCI/ADR-RES; −6.21 with RXF 393; >−4.00 in the data set with M14. In addition, the Log10TGI50 is given as >−4.00 with OVCAR-8; −7.30 in the data set on HOP-92; >−4.00 with NCI/ADR-RES; −6.59 in the data set on RXF 393; −6.31 in the data set with M14. Further, the “gross adverse effects including reductions in body weight or alterations in behaviour” value is “no gross adverse effects” with MM.1S tumor cells (4 mg/kg i.v, days 1, 3, 5/wk×28 days) and “no gross adverse effects” in the data set on MM.1S tumor cells (8 mg/kg i.v, days 1, 2/wk×4 wks).

The record behind these values is patent US20150218212A1, “FLUORINATED EPOXYKETONE-BASED TETRAPEPTIDE COMPOUNDS AND USES THEREOF AS PROTEASOME INHIBITORS” (FLUORINOV PHARMA INC., priority 2012, published 2015).
